The values below come from patent US20240269139A1, “COMPOUNDS FOR TARGETED PROTEIN DEGRADATION OF KINASES” (DANA-FARBER CANCER INSTITUTE, INC., priority 2020, published 2024).

Each structure is given as a SMILES string. Like-named read-outs stand apart in the source and are kept apart here.

What all share (format): cell-based
The target in test [1] is T1, protein kinases (human kinome) (Homo sapiens, UniProt Q12851).
T1 sequence (Q12851 1-820): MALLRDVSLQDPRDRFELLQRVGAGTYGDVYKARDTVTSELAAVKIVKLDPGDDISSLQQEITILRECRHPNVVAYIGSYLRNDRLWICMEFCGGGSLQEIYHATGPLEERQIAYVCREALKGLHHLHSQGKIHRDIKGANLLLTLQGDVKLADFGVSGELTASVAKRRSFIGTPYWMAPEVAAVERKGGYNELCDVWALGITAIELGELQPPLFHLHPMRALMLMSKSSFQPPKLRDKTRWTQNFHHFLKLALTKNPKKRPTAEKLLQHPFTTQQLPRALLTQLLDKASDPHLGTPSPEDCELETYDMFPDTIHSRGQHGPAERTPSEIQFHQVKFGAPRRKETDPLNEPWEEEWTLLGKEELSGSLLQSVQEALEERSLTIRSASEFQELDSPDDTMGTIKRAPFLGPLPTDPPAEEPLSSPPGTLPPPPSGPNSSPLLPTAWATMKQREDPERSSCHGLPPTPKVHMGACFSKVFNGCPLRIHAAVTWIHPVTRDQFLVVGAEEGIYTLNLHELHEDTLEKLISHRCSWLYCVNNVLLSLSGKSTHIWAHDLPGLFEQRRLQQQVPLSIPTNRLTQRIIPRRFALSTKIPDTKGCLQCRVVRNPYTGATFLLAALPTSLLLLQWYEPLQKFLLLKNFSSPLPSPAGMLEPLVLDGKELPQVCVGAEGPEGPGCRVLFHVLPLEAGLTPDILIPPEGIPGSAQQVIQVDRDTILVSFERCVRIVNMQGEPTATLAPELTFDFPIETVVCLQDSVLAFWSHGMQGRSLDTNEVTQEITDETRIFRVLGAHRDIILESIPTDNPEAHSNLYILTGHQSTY
The note with it: for logFC MAP4K2 (Q12851): direction down; for logFC: MAP4K2 (Q12851).

Test [2] concerns the target protein kinases (human kinome) (Homo sapiens, UniProt Q00537). The conditions noted are these: for logFC of CDK17: Accession Q00537; for logFC CDK17 (Q00537): direction of change down.
Test [3] concerns the target protein kinases (human kinome) (Homo sapiens, UniProt P53667). The conditions noted are these: LIMK1 (P53667-1).
Test [4] concerns the target protein kinases (human kinome) (Homo sapiens, UniProt Q14004). The note with it: for logFC CDK13: Accession Q14004-1.
Where [5] appears, read: direction down, experiment wp137.
[6] abbreviates: direction down, experiment wp147, 1 uM.
Where [7] appears, read: direction down, experiment wp147, 2 uM.
Where [8] appears, read: direction down, experiment wp147, 4 uM.

Chain of protein kinases (human kinome) (Homo sapiens, UniProt P53667) (P53667 whole entry): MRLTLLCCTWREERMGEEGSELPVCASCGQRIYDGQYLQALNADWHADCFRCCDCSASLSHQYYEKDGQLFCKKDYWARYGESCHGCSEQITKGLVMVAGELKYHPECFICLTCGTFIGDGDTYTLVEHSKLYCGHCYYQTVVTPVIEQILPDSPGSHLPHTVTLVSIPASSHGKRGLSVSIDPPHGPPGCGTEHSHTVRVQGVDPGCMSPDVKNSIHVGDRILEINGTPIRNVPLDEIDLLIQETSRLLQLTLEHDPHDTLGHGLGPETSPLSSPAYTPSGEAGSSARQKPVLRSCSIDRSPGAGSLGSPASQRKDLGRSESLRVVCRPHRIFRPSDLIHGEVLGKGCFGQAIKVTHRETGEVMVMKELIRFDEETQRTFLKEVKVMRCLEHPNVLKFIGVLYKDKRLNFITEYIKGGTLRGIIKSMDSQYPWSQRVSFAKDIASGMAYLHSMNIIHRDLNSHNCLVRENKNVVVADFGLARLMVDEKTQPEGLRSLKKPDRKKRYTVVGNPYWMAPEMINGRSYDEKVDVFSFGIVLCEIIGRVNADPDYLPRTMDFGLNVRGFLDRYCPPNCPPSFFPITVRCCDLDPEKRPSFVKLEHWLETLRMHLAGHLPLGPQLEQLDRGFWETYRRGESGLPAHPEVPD
Chain of protein kinases (human kinome) (Homo sapiens, UniProt Q00537) (Q00537 whole entry): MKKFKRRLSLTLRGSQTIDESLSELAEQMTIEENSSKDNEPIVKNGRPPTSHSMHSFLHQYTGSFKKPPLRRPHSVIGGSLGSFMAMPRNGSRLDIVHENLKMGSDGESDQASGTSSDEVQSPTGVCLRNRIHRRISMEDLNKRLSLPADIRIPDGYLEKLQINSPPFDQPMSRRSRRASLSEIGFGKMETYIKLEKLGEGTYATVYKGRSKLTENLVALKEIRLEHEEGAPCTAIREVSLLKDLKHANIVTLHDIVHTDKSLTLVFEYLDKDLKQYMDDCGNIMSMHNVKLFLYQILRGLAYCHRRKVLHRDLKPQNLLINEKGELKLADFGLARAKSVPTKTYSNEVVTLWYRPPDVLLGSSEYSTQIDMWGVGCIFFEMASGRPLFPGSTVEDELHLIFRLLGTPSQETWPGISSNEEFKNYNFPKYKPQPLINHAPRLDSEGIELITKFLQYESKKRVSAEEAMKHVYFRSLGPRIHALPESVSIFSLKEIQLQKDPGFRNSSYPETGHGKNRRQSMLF
Chain of protein kinases (human kinome) (Homo sapiens, UniProt Q14004) (Q14004 whole entry): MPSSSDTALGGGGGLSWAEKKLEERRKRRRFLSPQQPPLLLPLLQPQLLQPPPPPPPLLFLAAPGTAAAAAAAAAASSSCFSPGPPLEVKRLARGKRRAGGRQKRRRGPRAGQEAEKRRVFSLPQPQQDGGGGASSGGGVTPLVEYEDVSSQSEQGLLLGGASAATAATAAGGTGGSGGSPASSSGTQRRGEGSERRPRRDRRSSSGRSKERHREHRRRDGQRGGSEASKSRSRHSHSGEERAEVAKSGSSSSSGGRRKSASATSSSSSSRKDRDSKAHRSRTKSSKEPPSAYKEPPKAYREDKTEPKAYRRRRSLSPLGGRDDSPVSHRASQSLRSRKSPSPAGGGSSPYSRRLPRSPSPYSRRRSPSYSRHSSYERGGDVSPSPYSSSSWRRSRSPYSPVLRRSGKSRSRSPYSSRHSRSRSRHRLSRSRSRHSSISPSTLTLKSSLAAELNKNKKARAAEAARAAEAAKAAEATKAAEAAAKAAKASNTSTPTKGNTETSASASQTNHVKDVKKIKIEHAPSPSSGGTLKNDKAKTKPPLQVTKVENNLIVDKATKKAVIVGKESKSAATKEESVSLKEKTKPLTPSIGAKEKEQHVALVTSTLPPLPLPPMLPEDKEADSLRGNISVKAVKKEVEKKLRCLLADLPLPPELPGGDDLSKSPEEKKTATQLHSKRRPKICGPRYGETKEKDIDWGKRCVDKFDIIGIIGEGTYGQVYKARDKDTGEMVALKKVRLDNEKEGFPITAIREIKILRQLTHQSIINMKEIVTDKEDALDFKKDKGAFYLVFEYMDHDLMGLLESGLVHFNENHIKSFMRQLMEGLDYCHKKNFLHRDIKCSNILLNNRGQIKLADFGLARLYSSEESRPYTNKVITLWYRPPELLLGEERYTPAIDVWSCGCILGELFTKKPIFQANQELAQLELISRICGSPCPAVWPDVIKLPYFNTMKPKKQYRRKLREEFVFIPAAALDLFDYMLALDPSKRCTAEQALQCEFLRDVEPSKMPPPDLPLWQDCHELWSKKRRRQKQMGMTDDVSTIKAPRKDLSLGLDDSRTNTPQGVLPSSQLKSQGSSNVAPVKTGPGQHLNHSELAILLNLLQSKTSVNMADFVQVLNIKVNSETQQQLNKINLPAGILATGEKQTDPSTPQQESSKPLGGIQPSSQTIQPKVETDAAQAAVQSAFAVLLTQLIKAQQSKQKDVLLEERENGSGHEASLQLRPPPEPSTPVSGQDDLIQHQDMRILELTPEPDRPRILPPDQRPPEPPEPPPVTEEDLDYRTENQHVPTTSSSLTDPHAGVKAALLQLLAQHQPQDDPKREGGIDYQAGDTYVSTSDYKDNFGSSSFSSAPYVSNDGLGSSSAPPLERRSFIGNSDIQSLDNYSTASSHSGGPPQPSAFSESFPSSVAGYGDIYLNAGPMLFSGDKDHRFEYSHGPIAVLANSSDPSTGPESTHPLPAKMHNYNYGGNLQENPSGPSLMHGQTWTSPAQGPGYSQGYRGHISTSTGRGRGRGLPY

On to `Cc1ccc(NC(=O)c2cccc(C(F)(F)F)c2)cc1N1Cc2cnc(Nc3ccc(N4CCN(CCCCCCOc5cccc6c5C(=O)N(C5CCC(=O)NC5=O)C6=O)CC4)nc3)nc2N(C)C1=O` (stereo not shown) [DB0663], for which the “logFC MAP4K2 (Q12851)” value in test [1] (Experiment wp046) is reported as −0.3823. The logFC in test [1] (experiment wp045) is reported as −0.3823.

In the case of `Cc1ccc(C(=O)Nc2ccc(CN3CCN(CCCOCCOCCOCCNC(=O)COc4cccc5c4C(=O)N(C4CCC(=O)NC4=O)C5=O)CC3)c(C(F)(F)F)c2)cc1C#Cc1cnc2cccnn12` (stereo not shown) [SB1.G.187], in test [2] (experiment wp172), the “logFC of CDK17” value is −0.3562. Also, the “logFC CDK17 (Q00537)” value in test [2] (experiment wp172) is recorded as −0.3562. In addition, the “logFC MAP4K2 (Q12851)” value in test [1] (Experiment wp056) is on record as −1.847; in test [1] (Experiment wp103), −1.79; in test [1] (Experiment wp105), −1.757; in test [1] (Experiment wp107), −2.048; in test [1] (Experiment wp114) it was −0.7516. The logFC in test [1] (experiment wp056) is given as −1.847; in test [1] (experiment wp103) it was −1.79; in test [1] (experiment wp105) it was −1.757; in test [1] (experiment wp107) it was −2.048; in test [1] (experiment wp114), −0.7516.

Regarding `Nc1ncnc2c1c(-c1ccc(Oc3ccccc3)cc1)nn2[C@H]1CC[C@H](N2CCN(CCOCCNC(=O)CNc3cccc4c3C(=O)N(C3CCC(=O)NC3=O)C4=O)CC2)CC1` (stereo partly shown) [SB1.G.181], the “logFC LIMK1” value in test [3] (direction down, experiment wp071) is −0.686; in test [3] (experiment wp071, down), −0.686.

In the case of `CC(C)S(=O)(=O)c1ccccc1Nc1nc(Nc2ccc(N3CCN(CCOCCOCCNC(=O)CNc4cccc5c4C(=O)N(C4CCC(=O)NC4=O)C5=O)CC3)cc2)ncc1Cl` (stereo not shown) [TL12.186], the “logFC LIMK1” value is listed as −1.055 in test [3] (direction down, experiment wp131); −0.8734 in test [3] (setting [5]); −1.055 in test [3] (experiment wp131, down); −0.8734 in test [3] (experiment wp137, down). Moreover, the “logFC CDK13” value in test [4] (experiment wp016) is reported as −0.5885; in test [4] (experiment wp131) it was −0.7903; in test [4] (experiment wp137), −0.7062. In addition, the logFC in test [4] (CDK13 (Q14004-1), experiment wp016) is −0.5885. Further, the “logFC CDK13 (Q14004-1)” value is −0.7903 in test [4] (experiment wp131) and −0.7062 in test [4] (experiment wp137). The “logFC of CDK17” value is given as −0.84 in test [2] (experiment wp016) and −0.6165 in test [2] (experiment wp131). Further, the entries for the “logFC CDK17 (Q00537)” value in test [2] (experiment wp016) and in test [2] (experiment wp131) were −0.84 and −0.6165, respectively.

Consider `Cc1ncsc1-c1ccc([C@H](C)NC(=O)[C@@H]2C[C@@H](O)CN2C(=O)[C@@H](NC(=O)CCCCCN2CCN(c3ccc(Nc4ncc5scc(-c6cccc(NS(C)(=O)=O)c6)c5n4)cc3)CC2)C(C)(C)C)cc1` [RSS0680, (2S,4R)-1-((S)-3,3-Dimethyl-2-(6-(4-(4-((7-(3-(methylsulfonamido)phenyl)thieno[3,2-d]pyrimidin-2-yl)amino)phenyl)piperazin-1-yl)hexanamido)butanoyl)-4-hydroxy-N—((S)-1-(4-(4-methylthiazol-5yl)phenyl)ethyl)pyrrolidine-2-carboxamide], for which, in test [2] (experiment wp080), the “logFC of CDK17” value was −0.7875 and the “logFC CDK17 (Q00537)” value was −0.7875. In test [2] (experiment wp117), the “logFC of CDK17” value is −0.7193 and the “logFC CDK17 (Q00537)” value is reported as −0.7193.

On to `Cc1ncsc1-c1ccc([C@H](C)NC(=O)[C@@H]2C[C@@H](O)CN2C(=O)[C@@H](NC(=O)CCOCCOCCN2CCN(c3ccc(Nc4ncc(Cl)c(Nc5ccccc5S(=O)(=O)C(C)C)n4)cc3)CC2)C(C)(C)C)cc1` [FMF.06.098.1], for which the “logFC CDK13” value in test [4] (experiment wp108) is −0.3664; in test [4] (experiment wp131), −0.4981. Moreover, the “logFC CDK13 (Q14004-1)” value in test [4] (Experiment wp108) was −0.3664; in test [4] (experiment wp131) it was −0.4981. Further, the results for the “logFC MAP4K2 (Q12851)” value in test [1] (Experiment wp108) and in test [1] (Experiment wp131) were −0.5507 and −0.6092, respectively. The logFC in test [1] (experiment wp108) was −0.5507; in test [1] (experiment wp131), −0.6092.

Consider `CC(C)(C)c1nc(-c2cccc(NS(=O)(=O)c3c(F)cccc3F)c2F)c(-c2ccnc(NCCOCCNC(=O)CCOCCOCCNc3cccc4c3C(=O)N(C3CCC(=O)NC3=O)C4=O)n2)s1` (stereo not shown) [DD.03.106], for which the “logFC LIMK1” value is on record as −1.637 in test [3] (direction down, experiment wp047); −1.981 in test [3] (setting [5]); −2.959 in test [3] (setting [6]); −2.2 in test [3] (setting [7]); −0.637 in test [3] (setting [8]); −1.637 in test [3] (experiment wp047, down). The “logFC LIMK1” value is reported as −1.981 in test [3] (experiment wp137, down); −2.959 in test [3] (experiment wp147, 1 uM, down); −2.2 in test [3] (experiment wp147, 2 uM, down); −0.637 in test [3] (experiment wp147, 4 uM, down). For the same molecule, the “logFC of CDK17” value in test [2] (experiment wp047) is −0.72; in test [2] (experiment wp147, 1 uM) it was −0.7615; in test [2] (experiment wp147, 4 uM), −0.6232. The “logFC CDK17 (Q00537)” value in test [2] (experiment wp047) is −0.72; in test [2] (experiment wp147, 1 uM) it was −0.7615; in test [2] (experiment wp147, 2 uM), −0.8288; in test [2] (experiment wp147, 4 uM) it was −0.6232.

Consider `CC(C)S(=O)(=O)c1ccccc1Nc1nc(Nc2ccc(N3CCN(CCOCCNC(=O)CNc4ccc5c(c4)C(=O)N(C4CCC(=O)NC4=O)C5=O)CC3)cc2)ncc1Cl` (stereo not shown) [SK.3.93], for which, in test [4] (experiment wp016), the “logFC CDK13” value is given as −0.5636 and the “logFC CDK13 (Q14004-1)” value was −0.5636. In test [2] (experiment wp016), the “logFC of CDK17” value is −0.7103 and the “logFC CDK17 (Q00537)” value is −0.7103.

For the molecule `CC(C)S(=O)(=O)c1ccccc1Nc1nc(Nc2ccc(N3CCN(CCOCCOCCC(=O)NCCNc4cccc5c4CN(C4CCC(=O)NC4=O)C5=O)CC3)cc2)ncc1Cl` (stereo not shown) [TL13.97], the “logFC LIMK1” value in test [3] (setting [5]) is given as −1.173; in test [3] (experiment wp137, down), −1.173. Besides, in test [4] (experiment wp137), the “logFC CDK13” value is reported as −0.7359. The “logFC CDK13 (Q14004-1)” value in test [4] (experiment wp137) is −0.7359.

On to `Cc1ccc(C(=O)Nc2ccc(CN3CCN(CCOCCOCCNC(=O)CNc4cccc5c4C(=O)N(C4CCC(=O)NC4=O)C5=O)CC3)c(C(F)(F)F)c2)cc1C#Cc1cnc2cccnn12` (stereo not shown) [TL13.150], for which, in test [1] (Experiment wp081), the “logFC MAP4K2 (Q12851)” value was −1.088. This molecule came in with a logFC in test [1] (experiment wp081) of −1.088.

Turning to `CC(C)(C)c1nc(-c2cccc(NS(=O)(=O)c3c(F)cccc3F)c2F)c(-c2ccnc(NCCOCCNC(=O)CCOCCOCCNc3cccc4c3CN(C3CCC(=O)NC3=O)C4=O)n2)s1` (stereo not shown) [DD.03.107], the “logFC LIMK1” value in test [3] (direction down, experiment wp056) is recorded as −0.9594; in test [3] (setting [5]) it was −1.222; in test [3] (setting [6]) it was −0.9691; in test [3] (setting [7]) it was −1.375; in test [3] (setting [8]), −1.536; in test [3] (experiment wp056, down), −0.9594. Also, the “logFC LIMK1” value is recorded as −1.222 in test [3] (experiment wp137, down); −0.9691 in test [3] (experiment wp147, 1 uM, down); −1.375 in test [3] (experiment wp147, 2 uM, down); −1.536 in test [3] (experiment wp147, 4 uM, down).
